Experimental data taken from US12655108B2, “Heterocyclic compound as TYK2 pseudokinase domain inhibitor, synthetic method, and use” (ZHEJIANG WENDA PHARMA TECHNOLOGY LTD., priority 2021, dated 2026).

Columns and labels:
[1] = test system: pSTAT5 in CD3+ cells (IFN-α stimulated); assay: Inhibition of IFN-α-induced pSTAT5 expression in CD3+ cells of human whole blood, FACS detection; type: cell-based; conditions: 0.25 h, fresh human whole blood, IFN-α 20 ng/ml, 15 minutes
Description: The Inhibitory Effect of Compounds on the expression of pSTAT5 in CD3+ Cells Using FACS Detection • 1. Experimental Materials and instruments: • 1.1. Experimental reagents • DMSO, Sigma, Cat #D2650-100 ml, stored at room temperature. • Perm buffer III, BD Biosciences, Cat #558050, stored at 4° C. • Lyse/Fix buffer, BD Biosciences, Cat #558049, stored at room temperature. • EDTA, Invitrogen, Cat #15575-038, stored at room temperature. • PBS, Hyclone, Cat #SH30256.01, stored at 4° C. • PE Mouse Anti-Human CD3, BD Biosciences, Cat #555333, stored at 4° C. • Mouse anti-human Phospho-STATS (pY694) (Alexa Fluor® 647 Conjugate), BD Biosciences, Cat #562076, stored at 4° C. • IFN-α, Biolegend, Cat #592702 • 1.2 Experimental consumables • Microplate, 96 Well, PP, v-bottom, Greiner, Cat #GN651201-100EA. • 5 ml polystyrene round bottom tube, FALCON, Cat #04318011. • 96 square well storage plate, Thermo, Cat #AB-0661. • 96-well plate, Corning, Cat #3599. • 1.3 Instruments • CO2 cell incubator: MCO-15AC (Thermo) • Pipette: 0.2-10 μL, 20-200 μL, 200-1000 μL (Thermo) • Multichannel pipette: 0.2-10 μL, 5-50 μL, 20-300 μL (Raining) • Centrifuge: Thermo Centrifuge ST 40R; Thermo LEGEND Micro 21R • Water system: Millipore Milli-Q Reference system • Freezer: Haier ultralow temperature freezer • Haier 4 centigrade refrigerator • Haier −20 centigrade freezer • Vortex: EARTH REQUIRED • Plate Shaker: QI LIN BEI ER; MH-2 • Flow Cytometer: BD FACSVerse™ Flow Cytometer • 2 Experimental method: • 2.1 Compound Dilution • 1) On the day of experiment, the compound was prepared into a 10 mM solution with DMSO, diluted to 1.5 mM with DMSO, and then diluted to 8 gradient concentrations with 3-fold dilutions. • 2) 5 μl of diluted compound was transferred into 120 ul of DPBS solution with 0.1% BSA. • 3) Positive and negative control groups were set up, with an addition of 0.5% DMSO to the positive and negative control groups. • 2.2 Experimental procedure • 1) 67.5 ul of fresh human whole blood was added to the 96-well cell culture plate. • 2) 3.5 ul of diluted compound was added and mixed well. • 3) Incubating in a 37° C. incubator for 60 minutes. • 4) IFN-α was diluted in DPBS containing 0.1% BSA to 400 ng/ml, and PE anti-hCD3 antibody was diluted in DPBS containing 0.1% BSA to 5-fold. After the above 60-minute incubation, diluted PE anti-hCD3 antibody was added at 5 ul per well and diluted IFN-α was added at 4 ul per well, i.e., the final concentration of IFN-α per well was 20 ng/ml. • 5) Incubating in a 37° C. incubator for 15 minutes. • 6) All cells were transferred to a 96-well deep well plate and 1 ml of 37° C. preheated lysis/fix buffer was added. • 7) Incubating at 37° C. in dark for 10 minutes. • 8) Centrifuging at 600 g for 5 minutes and then the supernatant was discarded. Washing by adding 1 ml PBS for twice and centrifuging. • 9) 1 ml of Perm buffer III was added to cell precipitation. • 10) Incubating at 37° C. in dark for 30 minutes. • 11) Centrifuging at 600 g for 5 minutes and then the supernatant was discarded. Washing by adding 1 ml PBS for twice and centrifuging. • 12) APC anti-human pSTAT5 antibody was diluted in staining buffer, and then added to cell wells at 100 ul per well and mixed well. • 13) Incubating at room temperature for 40 minutes. • 14) Staining buffer was added and washed twice, 1 ml for each well, centrifuging at 600 g for 5 minutes. • 15) After discarding the supernatant, the cell precipitation was resuspended in 300 ul of staining buffer. • 16) Sample loading and analysing in a flow cytometer.

TYK2(JH1) = target: T1, TYK2(JH1) (Homo sapiens, UniProt P29597); assay: Kinase (JH1) experiment, TYK2(JH1); type: biochemical
T1 construct: TYK2-JH1 (the kinase domain of TYK2)
T1 sequence (P29597 897-1176 limits assumed): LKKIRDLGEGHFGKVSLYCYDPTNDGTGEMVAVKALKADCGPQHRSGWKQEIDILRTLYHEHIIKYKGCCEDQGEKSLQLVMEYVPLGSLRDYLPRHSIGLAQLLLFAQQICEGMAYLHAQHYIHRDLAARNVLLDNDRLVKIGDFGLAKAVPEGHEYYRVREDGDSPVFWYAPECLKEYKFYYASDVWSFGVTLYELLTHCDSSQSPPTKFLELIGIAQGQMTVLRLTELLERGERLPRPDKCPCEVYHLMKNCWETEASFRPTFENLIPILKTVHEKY
Description: (§1) • 1. Experimental method • 1.1. Pseudokinase (JH2) experiment operation was as follows: • 1.1.1. The compound was dissolved with DMSO to a storage concentration of 10 mM. • 1.1.2. A compound concentration of 200 times the final concentration was prepared in a compound dilution plate, which was diluted from the highest concentration point with a total of 4 concentration points using the 27 times dilution method, and then transferred to the Echo plate. • 1.1.3. The compound was flushed from the Echo plate to the 384 well experimental plate using an Echo instrument, thereby obtaining a total of 11 concentration points of the compound with three-fold dilution matrix. • 1.1.4. 5 ul of TYK2-JH2 or JAK1-JH2 pseudokinase, 3 times the final concentration, was added to the 384-well experimental plate. • 1.1.5. 5 ul of Tb, 3 times the final concentration, was added to the 384-well experimental plate. • 1.1.6. 5 ul of Tracer, 3 times the final concentration, was added to the 384-well experimental plate. • 1.1.7. Centrifuging for 30 seconds and incubating at room temperature for 60 minutes. • 1.1.8. The fluorescence ratio of 520 nm to 495 nm was read using Envision Microplate Reader (PerkinElmer). • 1.2. Kinase (JH1) experiment operation was as follows: • 1.2.1. […] The fluorescence ratio at 665 nm and 615 nm were read using Envision Microplate Reader (PerkinElmer). • 1.3. […]

TYK2(JH2) = TYK2(JH2) (Homo sapiens, UniProt P29597); assay: Pseudokinase (JH2) experiment with Tb/Tracer, TYK2-JH2; type: binding
Sequence of TYK2(JH2) (P29597 589-875 limits assumed): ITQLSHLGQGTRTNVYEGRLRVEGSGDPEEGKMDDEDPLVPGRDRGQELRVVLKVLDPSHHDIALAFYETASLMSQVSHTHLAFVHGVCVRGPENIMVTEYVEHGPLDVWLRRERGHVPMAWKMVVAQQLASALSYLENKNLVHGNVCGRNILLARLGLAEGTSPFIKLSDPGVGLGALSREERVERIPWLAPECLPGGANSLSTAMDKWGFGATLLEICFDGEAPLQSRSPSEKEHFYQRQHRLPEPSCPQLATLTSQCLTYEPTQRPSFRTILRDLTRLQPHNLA
Description: as §1

JAK1(JH1) = target: T2, JAK1(JH1) (Homo sapiens, UniProt P23458); assay: Kinase (JH1) experiment, JAK1(JH1); type: biochemical
T2 construct: JAK1-JH1 (the kinase domain of JAK1)
T2 sequence (P23458 875-1153 limits assumed): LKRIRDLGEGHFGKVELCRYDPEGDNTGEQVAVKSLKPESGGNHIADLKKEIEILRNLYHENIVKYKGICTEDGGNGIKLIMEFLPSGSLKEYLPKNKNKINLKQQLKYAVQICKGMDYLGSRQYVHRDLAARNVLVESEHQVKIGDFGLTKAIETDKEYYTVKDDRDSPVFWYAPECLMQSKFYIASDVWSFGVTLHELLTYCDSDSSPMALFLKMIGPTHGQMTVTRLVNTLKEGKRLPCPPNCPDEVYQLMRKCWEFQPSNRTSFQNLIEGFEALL
Description: as §1

JAK1(JH2) = JAK1(JH2) (Homo sapiens, UniProt P23458); assay: Pseudokinase (JH2) experiment with Tb/Tracer, JAK1-JH2; type: binding
Sequence of JAK1(JH2) (P23458 583-855 limits assumed): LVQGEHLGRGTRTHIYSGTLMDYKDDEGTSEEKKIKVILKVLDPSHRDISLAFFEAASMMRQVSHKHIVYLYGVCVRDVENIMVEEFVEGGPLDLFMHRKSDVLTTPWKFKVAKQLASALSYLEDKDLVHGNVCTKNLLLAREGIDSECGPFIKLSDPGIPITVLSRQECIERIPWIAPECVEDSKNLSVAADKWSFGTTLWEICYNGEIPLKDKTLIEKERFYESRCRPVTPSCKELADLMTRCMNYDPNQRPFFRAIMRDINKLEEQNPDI
Description: as §1

JAK2(JH1) = target: T3, JAK2(JH1) (Homo sapiens, UniProt O60674); assay: Kinase (JH1) experiment, JAK2(JH1); type: biochemical
T3 construct: JAK2-JH1 (the kinase domain of JAK2)
T3 sequence (O60674 849-1124 limits assumed): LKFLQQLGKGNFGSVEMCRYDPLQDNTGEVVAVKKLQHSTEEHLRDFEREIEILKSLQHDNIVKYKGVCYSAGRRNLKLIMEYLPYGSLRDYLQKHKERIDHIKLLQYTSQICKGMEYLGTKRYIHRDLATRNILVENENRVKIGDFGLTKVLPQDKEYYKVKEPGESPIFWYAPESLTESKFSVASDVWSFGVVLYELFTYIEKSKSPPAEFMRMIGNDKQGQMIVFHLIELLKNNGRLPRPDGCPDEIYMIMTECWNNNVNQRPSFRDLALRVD
Description: as §1

JAK3(JH1) = target: T4, JAK3(JH1) (Homo sapiens, UniProt P52333); assay: Kinase (JH1) experiment, JAK3(JH1); type: biochemical
T4 construct: JAK3-JH1 (the kinase domain of JAK3)
T4 sequence (P52333 822-1111 limits assumed): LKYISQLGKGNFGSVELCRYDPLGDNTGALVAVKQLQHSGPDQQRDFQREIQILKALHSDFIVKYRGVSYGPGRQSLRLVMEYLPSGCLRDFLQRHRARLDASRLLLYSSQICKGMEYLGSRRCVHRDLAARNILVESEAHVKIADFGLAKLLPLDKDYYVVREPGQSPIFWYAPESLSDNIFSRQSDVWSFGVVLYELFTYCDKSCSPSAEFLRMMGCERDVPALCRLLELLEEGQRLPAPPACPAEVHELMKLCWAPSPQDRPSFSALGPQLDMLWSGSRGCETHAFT
Description: as §1

[2] = selectivity ratio versus TYK2-JH2

[2H]C([2H])([2H])NC(=O)c1cnc(NC(=O)C2CC2)cc1Nc1ncccc1S(=O)(=O)C1CC1 [Compound 6]
IC50 [1]: 128 nM

[2H]C([2H])([2H])NC(=O)c1nnc(NC(=O)C2CC23CC3)cc1Nc1ncccc1S(=O)(=O)C1CC1 (stereo not drawn) [Compound 4]
IC50 [1]: 168 nM

[2H]C([2H])([2H])NC(=O)c1nnc(NC(=O)C2CC2)cc1Nc1ncccc1S(=O)(=O)C1CC1 [Compound 3]
IC50 [1]: 64 nM
IC50 (TYK2(JH1); kinase domain): 4310 nM
IC50Other/IC50TYK2-JH2, TYK2(JH1) (TYK2(JH1); [2]): 13480
IC50 (TYK2(JH2); pseudokinase domain): 0.32 nM
IC50Other/IC50TYK2-JH2, TYK2(JH2) (TYK2(JH2); reference ratio, TYK2-JH2 versus itself): 1
IC50 (JAK1(JH1); kinase domain): 3190 nM
IC50Other/IC50TYK2-JH2, JAK1(JH1) (JAK1(JH1); [2]): 9955
IC50 (JAK1(JH2); pseudokinase domain): 53.1 nM
IC50Other/IC50TYK2-JH2, JAK1(JH2) (JAK1(JH2); [2]): 166
IC50 (JAK2(JH1); kinase domain): 2810 nM
IC50Other/IC50TYK2-JH2, JAK2(JH1) (JAK2(JH1); [2]): 8790
IC50 (JAK3(JH1); kinase domain): 2380 nM
IC50Other/IC50TYK2-JH2, JAK3(JH1) (JAK3(JH1); [2]): 7432

[2H]C([2H])([2H])NC(=O)c1nnc(NC(=O)C2CC2)cc1Nc1ccccc1S(=O)(=O)C1CC1 [Compound 1]
IC50 [1]: 2800 nM

[2H]C([2H])([2H])NC(=O)c1nnc(NC(=O)C2CC2)cc1Nc1nccnc1S(=O)(=O)C1CC1 [Compound 2]
IC50 [1]: 867 nM

[2H]C([2H])([2H])NC(=O)c1nnc(NC(=O)C2CC23CC3)cc1Nc1nccnc1S(=O)(=O)C1CC1 (stereo not drawn) [Compound 5]
IC50 [1]: 2110 nM
